Test results taken from patent US20210205292A1, “INHIBITORS OF CREB-CBP INTERACTION FOR TREATMENT OF LEUKEMIA” (The Board of Trustees of the Leland Stanford Junior …, priority 2016, published 2021).
“Also recorded” adds a separate entry of the source.

Tests used:
CREB target genes = test: RT-PCR of CREB target genes in GFP+ bone marrow cells of engrafted NSG mice; assay type: in vivo, mouse; details: 2.3 mg/kg, three once-daily treatments after ten-day engraftment
Protocol: To directly evaluate the effects of Compound A on CREB transcriptional activity in vivo, six NSG mice were injected with 2×10^6 HL-60 expressing GFP. After a ten-day engraftment period, the mice received three once-daily treatments of either 2.3 mg/kg Compound A or DMSO. The mice were then sacrificed and GFP+ bone marrow cells were sorted and analyzed for transcriptional changes in validated CREB target genes. This experiment recapitulated in vitro findings (FIG. 4, panel E).

[1] = In vivo toxicity in NSG mice not injected with AML cells; design: species or system mouse
Protocol: To assess the potential in vivo toxicities of Compound A, four groups of five mice not injected with AML cells were treated with 2.3 mg/kg Compound A intravenously daily, or 20, 40 or 60 mg/kg intraperitoneally (IP) daily for 28 days.

Caspase-3 = Caspase-3 protease activity (ApoTarget kit); assay type: cell-based; design: unit of the concentration uncertain
Excerpt: The ApoTarget Caspase-3 Protease Activity Kit (Invitrogen) was used per manufacturer's instructions.
The balance between pro- and anti-apoptotic protein expression contributes to cell fate decisions. CREB regulates the expression of several anti-apoptotic proteins, including Bcl-2, Bcl-XL and Mcl-1. Bcl-2 expression in particular is known to mediate resistance to chemotherapy and influence clinical outcome in a number of cancer types, including AML. The ability of Compound A to cause apoptosis by disrupting the CREB-driven expression of these anti-apoptotic proteins was examined. In HL-60 cells treated with Compound A, apoptosis is induced in a dose- and time-dependent manner. […] Compound A elicited apoptosis through the intrinsic apoptosis pathway, with activation of Caspase-3 (FIG. 5, panel B) and detectable Caspase-9 cleavage (data not shown). Relative caspase-3 activity at 24 hours: 5.4±0.8 for etoposide, 1±0.78, 0.93±0.71, 1.02±0.67, 2.9±0.58, 5.1±0.63, 4.1±0.71 for 0, 1, 1.5, 2, 2.5 and 3 mM Compound A, respectively. Activity at 72 hours: 1.2±0.05 for etoposide, 1.0±0.02, 1.9±0.03, 3.7±0.04, 4.4±0.05, 2.1±0.03, 1.9±0.02 for 0, 1, 1.5, 2, 2.5 and 3 mM Compound A, respectively. The transcription of Bcl-2 decreased following 72 hours of 2 mM Compound A treatment (FIG. 5, panel C), and this was verified by Western blot analysis (FIG. 5, panel D). […] To confirm whether loss of Bcl-2 function alone is sufficient to induce apoptosis in AML cells, HL-60 cells were treated with the validated Bcl-2 inhibitor ABT-737 (50 to 200 nM). […] Bcl-2 levels are influenced by CREB expression in these AML cell lines (FIG. 11, panel C).

[2] = test system: Bcl-2, Mcl-1, Bcl-XL expression in HL-60 cells; test: RT-PCR and Western blot of anti-apoptotic proteins in HL-60 cells; assay type: cell-based, human; design: transcription of Bcl-2: dose or concentration left out as unconfirmed
Protocol: Total RNA was isolated using the Aurum RNA Isolation Mini Kit, and the iScript cDNA Synthesis Kit was used to prepare samples for qPCR (Bio-Rad). PCR was performed on the CFX384 Real-Time System (Bio-Rad) and results were analyzed using the Livak method. For analysis of RNA-seq data as target genes of known transcription factors, a curated list of all human target genes was extracted from the TRANSFAC Pro database.
Cells were lysed in RIPA buffer (Sigma), and the protein concentrations were determined by BCA assay (Thermo Scientific Pierce). Lysates were solubilized in 6×SDS PAGE buffer and […] of protein was loaded into 6-15% SDS PAGE gels, pheresed, and then transferred onto […] PVDF membrane (Millipore). Primary antibodies were applied at a dilution of 1:1000. Anti-Bcl-2, -Bax, -Mcl-1, -Bcl-XL, -Cyclin A and -Cyclin D1 antibodies were purchased from Cell Signaling Technologies. Anti-total acetylated histone and -ac-H3K27 were purchased from Santa Cruz Biotechnologies. Anti-actin and -CREB antibodies were purchased from upstate. Secondary antibodies were used at a 1:2500 dilution and purchased from Thermo Scientific/Pierce. WesternBright ECL was used for image acquisition on Image Lab software (Bio-Rad).
The balance between pro- and anti-apoptotic protein expression contributes to cell fate decisions. CREB regulates the expression of several anti-apoptotic proteins, including Bcl-2, Bcl-XL and Mcl-1. Bcl-2 expression in particular is known to mediate resistance to chemotherapy and influence clinical outcome in a number of cancer types, including AML. The ability of Compound A to cause apoptosis by disrupting the CREB-driven expression of these anti-apoptotic proteins was examined. In HL-60 cells treated with Compound A, apoptosis is induced in a dose- and time-dependent manner. […] Compound A elicited apoptosis through the intrinsic apoptosis pathway, with activation of Caspase-3 (FIG. 5, panel B) and detectable Caspase-9 cleavage (data not shown). […]

KG-1 cells = test: Cell cycle analysis of synchronized KG-1 cells by flow cytometry; assay type: cell-based
Protocol: KG-1 cells were synchronized at prometaphase using a modified thymidine plus nocodazole block (Whitfield et al. identification of genes periodically expressed in the human cell cycle and their expression in tumors. Mol Biol Cell. 2002; 13(6):1977-2000). Briefly, KG-1 cells were treated with 2 mM thymidine for 30 h, washed with PBS and released from G1/S block in fresh media for 4 h. The cells were incubated with 300 nM nocodazole (Sigma) for 13 h. Compound A or DMSO was added 3 hours before release. The synchronized cells were washed with PBS and released from the mitotic block in fresh media containing Compound A or DMSO. To analyze DNA content by flow cytometry, cells were harvested, fixed in 70% ice-cold ethanol for at least 1 hour at −20° C., and then incubated in propidium iodide (PI) staining buffer (PBS containing RNase A (50 μg/ml), 0.1% sodium citrate, and PI ([…])) for 30 minutes at RT. Cells were analyzed on a FACS Calibur flow cytoneter (BD Biosciences). Cell-cycle distribution was determined using FlowJo software (TreeStar).
CREB regulates the cell cycle by virtue of transcriptionally regulating the expression of key cell cycle genes. Thus, the effect of Compound A on this aspect of cell function was also examined. […]

[3] = 2.3 mg/kg IV or 20, 40 or 60 mg/kg IP daily, 28 days

N#Cc1ccc(NC(=O)c2cc3ccccc3cc2O)cc1 [Compound A, N-(4-cyanophenyl)-3-hydroxy-2-naphthamide]
expression of CREB target genes in vivo (RT-PCR) (CREB target genes): significantly reduced expression of all genes shown
complete blood counts, liver function tests and kidney function tests [1, 3]: no difference; also recorded: normal complete blood counts, liver function tests and kidney function tests
tissue histology [1, 3]: no evidence of fibrosis or damage; also recorded: no microscopic evidence of vital organ damage
animal body weight ([1]; over 28 days): no decrease in animal body weight
relative caspase-3 activity (Caspase-3; 24 hours, 1 (unit uncertain)): 0.93±0.71
relative caspase-3 activity (Caspase-3; 24 hours, 1.5 (unit uncertain)): 1.02±0.67
relative caspase-3 activity (Caspase-3; 24 hours, 2 (unit uncertain)): 2.9±0.58
relative caspase-3 activity (Caspase-3; 24 hours, 2.5 (unit uncertain)): 5.1±0.63
relative caspase-3 activity (Caspase-3; 24 hours, 3 (unit uncertain)): 4.1±0.71
relative caspase-3 activity (Caspase-3; 72 hours, 1 (unit uncertain)): 1.9±0.03
relative caspase-3 activity (Caspase-3; 72 hours, 1.5 (unit uncertain)): 3.7±0.04
relative caspase-3 activity (Caspase-3; 72 hours, 2 (unit uncertain)): 4.4±0.05
relative caspase-3 activity (Caspase-3; 72 hours, 2.5 (unit uncertain)): 2.1±0.03
relative caspase-3 activity (Caspase-3; 72 hours, 3 (unit uncertain)): 1.9±0.02
Bcl-XL expression [2]: remained constant
expression of Mcl-1 [2]: initially increased, then decreased at 72 hours
transcription of Bcl-2 ([2]; 72 hours): decreased
% cells in G1-phase (KG-1 cells; 4 hours following release): 66.20±1.83%
% cells in G1-phase (KG-1 cells; 8 hours following release): 55.41±0.59%
